Measured values from patent US20070078109A1, “Compositions and methods used to treat acne and candida” (priority 2004, published 2007).

Columns and labels:
[1] = system: Staphyloccocus aureus; details: at low concentration
[2] = system: P. acnes and various pathogenic candida; details: including against resistant pathogenic strains
[3] = system: acne; details: 4% active AGP formula; in less than 48 hours
[4] = system: C. albicans isolates, including one fluconazole-resistant strain; details: AGP at 0.25% topical, 1-7 days, cyclophosphamide-immunosuppressed animals; compared with 2% miconazole
Method: Pre-clinical studies with three C. albicans isolates, including one fluconazole-resistant strain, were performed using immunosuppressed animals with cyclophosphamide.

[5] = system: Escherichia coli; details: at low concentration
[6] = system: P. acnes; details: complete inhibition

N-acetylglucoseamine (AGA)-glucosamine (GA)-pyrithione (PR) [AGP]
activity toward Staphyloccocus aureus [1]: active
bactericidal activity [2]: excellent bactericidal activity
results in acne patients [3]: remarkable results
clearing the infection [4]: equivalent in clearing the infection as 2% miconazole
activity toward Escherichia coli [5]: active
concentration that completely inhibited P. acnes [6]: less than 0.1 mg/mL
